Values after ≈ are worked out from the molar mass of the structure shown.
System: Escherichia coli (ATCC 33456)
Assay: Ampicillin IC50 in E. coli
Format: cell-based
Settings: ATCC33456
Description: The ability of antibiotics to inhibit the uptake of MDP-1 in Escherichia coli was investigated. Escherichia coli (ATCC 33456) were grown in LB medium at 37° C. under 5% CO2 to an OD600=0.5, as described above. […] Escherichia coli were incubated with ampicillin for 1 hour at 37° C. under 5% CO2, and 60 μL of MDP-1 stock solutions (1 mM in PBS) were added, generating a 20 μM MDP concentration. Escherichia coli were incubated with MDPs in the presence of ampicillin for 1 hour at 37° C. under 5% CO2 in an incubator shaker. At this stage, a small aliquot of the bacterial culture was plated to determine the CFUs of bacteria in the MDP solution. Escherichia coli were harvested by centrifuging and the resulting pellets were washed 3 times with 10 mL PBS. The intracellular fluorescence of the bacteria was determined as described in FIG. 3a.

IC50: 3 µg/mL (≈ 8.59 µM)
SMILES: CC1(C)S[C@@H]2[C@H](NC(=O)[C@H](N)c3ccccc3)C(=O)N2[C@H]1C(=O)O [ampicillin]

Reference: patent publication US10646580B2, “Oligosaccharide conjugates for targeting bacteria and uses related thereto” (priority 2011, dated 2020)
